According to PMC12371494, “Discovery of YTHDF2 Ligands by Fragment-Based Design” (ACS Bio & Med Chem Au, 2025):
Where “and” joins values, the source holds several entries; their conditions need not be identical. Identical values can stand only once.

Assays:
YTHDC2 = molecular target: T1, YTHDC2 (Homo sapiens, UniProt Q9H6S0); assay: DNA-fluorescence polarization (FP) competition assay, DC2; type: binding; conditions: for Kd: Cheng-Prusoff from FP IC50, probe Kd 7 nM, two biological replicates; for Selectivity DF2 over DC2 (Kd ratio DC2/DF2): FP Kd values
T1 construct: YTH domain of YTHDC2 (residues 1285–1424, cloned into the pGEX-6P-1 vector); made in house; host or cells: Rosetta (DE3) cells (E. coli)
T1 sequence (Q9H6S0 1285-1424): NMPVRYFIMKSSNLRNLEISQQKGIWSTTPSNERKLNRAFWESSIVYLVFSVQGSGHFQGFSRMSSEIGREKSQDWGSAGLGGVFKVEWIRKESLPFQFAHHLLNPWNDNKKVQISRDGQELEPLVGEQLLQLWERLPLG
Description: The binding affinity for DC1 could not be evaluated by HTRF because of interference of the compounds with the assay, which has a smaller assay window when performed with DC1 compared to the DF proteins. Thus, the FP assay was used to evaluate binding to DC1 and DC2.
The N-terminally GST-tagged YTH domain of YTHDC2 (residues 1285–1424, cloned into the pGEX-6P-1 vector) was overexpressed in Rosetta (DE3) cells grown overnight at 20 °C following induction with 0.4 mM isopropyl-β-D-thiogalactopyranoside (IPTG) at an OD600 of 0.8. The cells were harvested and resuspended in a lysis buffer containing 100 mM Tris–HCl (pH 8.0) and 500 mM NaCl. After cell lysis, the lysate was clarified by centrifugation at 48,000g for 1 h, and the soluble proteins were loaded onto a column packed with Glutathione Sepharose 4B (GE Healthcare), then eluted with 20 mM reduced glutathione in lysis buffer. Finally, a size-exclusion chromatography step (HiLoad 16/600 Superdex 200 pg column, GE Healthcare) was performed to further purify the protein in 20 mM Tris–HCl (pH 7.4) and 150 mM NaCl.
For fluorescence polarization (FP) experiments, a 5′-fluorescein-labeled m^6A-DNA probe (5′-FAM-[…](m6A)-CTAAGCT-3′) was synthesized by Microsynth AG.
The final concentration of the fluorescein-labeled DNA was kept constant at 3 nM. For YTHDC2 measurements, the protein concentration was set to 25 nM, while for YTHDF2 measurements, it was set to 10 nM, and for YTHDC1, it was set at 15 nM. The compound concentration was serially diluted to obtain the dose–response curve. The competition experiments were conducted in a final volume of 20 μL in a buffer containing 20 mM Tris–HCl (pH 7.4), 150 mM NaCl, and 0.01% bovine serum albumin (BSA), using a 384-well black flat-bottomed microplate (Corning 3575).
After incubating the mixture for 1 h, the anisotropy values were measured using a Tecan SPARK plate reader with 485/20 nm excitation and 535/25 nm emission polarization filters, suitable for fluorescein, at 25 °C. To obtain the equilibrium dissociation constant (K d), the IC50 values were first derived by fitting a dose–response curve to the data using nonlinear regression analysis in GraphPad Prism. These IC50 values were then converted to K d by using the Cheng–Prusoff equation: Kd=IC50/1+[L]/Kdprobe
IC50 is the observed value from FP assay, [L] is the probe concentration used, and K d ^probe is the binding affinity of probe for the target.

GST-YTHDF1 = molecular target: T2, GST-YTHDF1 (Homo sapiens, UniProt Q9BYJ9); assay: HTRF-based binding assay, DF1; conditions: for Single-dose residual signal at 100 µM, DF1: 100 µM compound, normalized; for IC50: dose-response
T2 construct: made in house
T2 sequence (Q9BYJ9 1-559): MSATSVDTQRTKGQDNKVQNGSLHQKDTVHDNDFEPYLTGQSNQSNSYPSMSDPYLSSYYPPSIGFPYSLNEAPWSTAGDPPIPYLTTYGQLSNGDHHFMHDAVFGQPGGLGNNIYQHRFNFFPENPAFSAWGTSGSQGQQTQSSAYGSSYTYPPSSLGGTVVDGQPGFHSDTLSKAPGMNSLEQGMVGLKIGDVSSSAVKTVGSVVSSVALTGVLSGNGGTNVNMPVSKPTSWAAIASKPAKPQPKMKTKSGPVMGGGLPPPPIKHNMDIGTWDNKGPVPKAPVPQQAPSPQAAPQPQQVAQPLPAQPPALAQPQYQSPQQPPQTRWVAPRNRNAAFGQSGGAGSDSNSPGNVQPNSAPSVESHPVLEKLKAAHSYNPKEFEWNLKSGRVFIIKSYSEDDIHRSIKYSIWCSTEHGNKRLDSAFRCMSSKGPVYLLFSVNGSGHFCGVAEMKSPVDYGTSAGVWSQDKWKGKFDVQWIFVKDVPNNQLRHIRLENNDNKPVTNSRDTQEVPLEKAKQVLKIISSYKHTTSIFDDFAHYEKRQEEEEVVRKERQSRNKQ
Description: The HTRF-based assay was employed to evaluate the selectivity of the series against other DF proteins.
A dose–response experiment on DF1 and DF3 was conducted for compounds 17, 18, 23, and 27 (Figure S5). Compounds 17, 18, and 27 are active on three DF proteins. […] In contrast, compound 23 is selective for DF2, with residual signals (at the highest employed concentration of 62.5 μM) of 51 and 87% for DF1 and DF3, respectively.
GST-YTHDC1, GST-YTHDF1, GST-YTHDF2, and GST-YTHDF3 were purified as previously reported. The HTRF assay was assembled as detailed in ref with the only difference being that the starting concentration of the dose–response experiments used for the IC50 determination was variated dependently from the tested compound. The same protocol was applied to the four proteins. The competitive inhibition data of GST-YTHDF1 (single dose experiment at 100 μM compound concentration and dose–response curves), GST-YTHDF3 (single dose experiment at 100 μM compound concentration and dose–response curves), and GST-YTHDF2 (single dose experiment at 100 μM compound concentration) were normalized as described in ref to mitigate interference. The signal was measured as described in ref .

SMILES | Kd (YTHDC2) | Single-dose residual signal at 100 µM, DF1 (GST-YTHDF1; HTRF) [%] | IC50 (GST-YTHDF1) [µM] | Selectivity DF2 over DC2 (Kd ratio DC2/DF2) (YTHDC2) | Residual signal DF1 at highest concentration (GST-YTHDF1; HTRF, 62.5 μM compound) [%]
O=C(O)c1ccc(-c2csc3[nH]c(=S)[nH]c(=O)c23)cc1 [Compound 18] | 7.7 µM | 3 | 11 | – | –
CC(=O)c1sc2[nH]c(=S)[nH]c(=O)c2c1C [Compound 20] | 46 µM | 8 | – | – | –
O=c1[nH]c(=S)[nH]c2sccc12 [Compound 14] | 88 µM | 15 | – | ~20 fold | –
NC(=O)c1csc2[nH]c(=S)[nH]c(=O)c12 [Compound 31] | 18 µM | 27 | – | – | –
COC(=O)c1ccc(-c2csc3[nH]c(=S)[nH]c(=O)c23)cc1 [Compound 17] | 6.3 µM | 7 | 10 | – | –
CCOC(=O)c1sc2[nH]c(=S)[nH]c(=O)c2c1C [Compound 21] | 230 µM | 12 | – | – | –
O=C(O)c1csc2[nH]c(=S)[nH]c(=O)c12 [Compound S90] | 240 µM | 36 | – | – | –
Cc1c(-c2ccc([N+](=O)[O-])cc2)sc2[nH]c(=S)[nH]c(=O)c12 [Compound 26] | 35 µM | 12 | – | – | –
Cc1c(C(=O)NCc2cccnc2)sc2[nH]c(=S)[nH]c(=O)c12 [Compound 23] | > 400 µM and 450 µM | 20 | > 60 | about 350 fold | 51

The remaining lines, values ahead:

Kd (YTHDC2) | Single-dose residual signal at 100 µM, DF1 (GST-YTHDF1; HTRF) [%] | IC50 (GST-YTHDF1) [µM] | Selectivity DF2 over DC2 (Kd ratio DC2/DF2) (YTHDC2) | Residual signal DF1 at highest concentration (GST-YTHDF1; HTRF, 62.5 μM compound) [%] | SMILES
37 µM | 9 | – | – | – | O=c1[nH]c(=S)[nH]c2scc(-c3ccc(Br)cc3)c12 [Compound S75]
450 µM and > 400 µM | 16 | – | – | – | CCOC(=O)c1csc2[nH]c(=S)[nH]c(=O)c12 [Compound S89]
41 µM | 5 | – | – | – | Cc1c(C(=O)NCc2cccc(C(=O)O)c2)sc2[nH]c(=S)[nH]c(=O)c12 [Compound 24]
130 µM | 6 | – | – | – | Cc1c(C(=O)NCCCC(=O)O)sc2[nH]c(=S)[nH]c(=O)c12 [Compound 25]
40 µM | 8 | – | – | – | O=c1[nH]c(=S)[nH]c2scc(-c3ccc(O)cc3)c12 [Compound 19]
54 µM | 12 | – | – | – | COc1ccc(-c2csc3[nH]c(=S)[nH]c(=O)c23)cc1 [Compound S76]
240 µM | 32 | – | – | – | O=c1[nH]c(=S)[nH]c2scc(C3CCCCC3)c12 [Compound S77]
270 µM | 17 | – | – | – | Cc1c(C(=O)NCc2ccccc2)sc2[nH]c(=S)[nH]c(=O)c12 [Compound 22]
30 µM | 6 | 13 | – | – | Cc1c(-c2ccc(N)cc2)sc2[nH]c(=S)[nH]c(=O)c12 [Compound 27]
160 µM | 34 | – | – | – | O=c1[nH]c(=S)[nH]c2sc(Cc3ccccc3)cc12 [Compound S85]
